Where “and” joins values, the source holds several entries; their conditions need not be identical. Identical values can stand only once.

The subject of experiment [1] is CAL-120. Conditions: 72 h. An outline of the steps:
(§1)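 Breast cancer cell lines (20 µl suspension) were seeded into 384-well plates holding compound at 5 concentrations in 10-fold steps over a compound-specific 10,000-fold range, then incubated 72 h. Cell death was read first by CellTox Green fluorescence (485/520 nm), then viability by CellTiter-Glo luminescence after 10 min at room temperature. Each plate was normalised to 0.1 % DMSO and a positive kill control. EC50 was fitted from the dose-response curves and censored at the top concentration.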

Experiment [2] concerns Hs578T. To be noted: 72 h. The procedure, abridged:
as §1

Experiment [3] relates to MDA-MB-453. To be noted: 72 h. The procedure, abridged:
as §1

Experiment [4] relates to HCC1937. To be noted: 72 h. An outline of the steps: as §1
Experiment [5] relates to MDA-MB-231. Conditions: 72 h. An outline of the steps: as §1
In experiment [6] the test system is MDA-MB-436. Conditions: 72 h. The procedure, abridged:
as §1

The subject of experiment [7] is BT-549. To be noted: 72 h. An outline of the steps: as §1
Experiment [8] relates to BT-474. Conditions: 72 h. The procedure, abridged:
as §1

Experiment [9] deals with CAL-51. To be noted: 72 h. The procedure, abridged:
as §1

In experiment [10] the test system is SK-BR-3. To be noted: 72 h. An outline of the steps: as §1
For experiment [11], the system named is CAL-85-1. Conditions: 72 h. The procedure, abridged:
as §1

Experiment [12] concerns MCF-10A. To be noted: 72 h. The procedure, abridged: as §1
The test system of experiment [13] is MDA-MB-468. To be noted: 72 h. The procedure, abridged:
as §1

Experiment [14] concerns MDA-MB-453. To be noted: 72 h. The procedure, abridged: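 Each 384-well plate was pre-loaded with compound dissolved in 5 µl medium, received breast cancer cells in 20 µl suspension, and was incubated 72 h. A 2.5 µl addition of CellTiter-Blue for 2 h at 37 °C was followed by a fluorescence read at 560/590 nm. Data were normalised per plate to vehicle and a positive kill control and checked by Z'-factor. EC50 was fitted from the percent-inhibition dose-response curve, censored at the highest concentration, excluding rows with a drug sensitivity score of zero.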
This is another data set of the same source.

Experiment [15] relates to MDA-MB-453. The experiment in a line: normalised viability (% of control), CellTiter-Blue; higher = more viable cells (about 100 = DMSO control). To be noted: 1000 nM; incubation time: 72 h. On the procedure: (§2)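 DSRT, CellTiter-Blue viability, 72 h incubation. Signal is normalised to DMSO and benzethonium chloride controls. Value is the normalised response at dose 9.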
For experiment [16], the system named is CAL-148. Described as above. To be noted: 1000 nM; incubation time: 72 h. On the procedure:
as §2

The subject of experiment [17] is HDQ-P1. Described as above. Conditions: 1000 nM; incubation time: 72 h. The protocol:
as §2

Experiment [18] has as its system CAL-51. Described as above. Conditions: 1000 nM; incubation time: 72 h. On the procedure:
as §2

The test system of experiment [19] is CAL-85-1. The description is as above. To be noted: 1000 nM; incubation time: 72 h. The protocol:
as §2

Experiment [20] concerns DU-4475. Described as above. To be noted: 1000 nM; incubation time: 72 h. The protocol: as §2
In experiment [21] the test system is MDA-MB-453. The description is as above. To be noted: 30 nM; incubation time: 72 h. On the procedure: (§3)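 DSRT, CellTiter-Blue viability, 72 h incubation. Signal is normalised to DMSO and benzethonium chloride controls. Value is the normalised response at dose 6.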
For experiment [22], the system named is CAL-148. The description is as above. Conditions: 30 nM; incubation time: 72 h. On the procedure:
as §3

Experiment [23] has as its system HDQ-P1. The description is as above. To be noted: 30 nM; incubation time: 72 h. The protocol:
as §3

Experiment [24] concerns CAL-51. Described as above. Conditions: 30 nM; incubation time: 72 h. The protocol:
as §3

Experiment [25] deals with CAL-85-1. The experiment is described as above. Conditions: 30 nM; incubation time: 72 h. The protocol: as §3
Experiment [26] concerns DU-4475. The description is as above. Conditions: 30 nM; incubation time: 72 h. On the procedure: as §3
In experiment [27] the test system is MDA-MB-453. The experiment is described as above. Conditions: 1 nM; incubation time: 72 h. On the procedure:
(§4)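 DSRT, CellTiter-Blue viability, 72 h incubation. Signal is normalised to DMSO and benzethonium chloride controls. Value is the normalised response at dose 3.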

Experiment [28] deals with CAL-148. Described as above. To be noted: 1 nM; incubation time: 72 h. On the procedure:
as §4

Experiment [29] deals with HDQ-P1. The description is as above. Conditions: 1 nM; incubation time: 72 h. On the procedure: as §4
The subject of experiment [30] is MDA-MB-436. Described as above. To be noted: 10 nM; incubation time: 72 h. On the procedure:
as §4

In experiment [31] the test system is HCC1599. Described as above. To be noted: 10 nM; incubation time: 72 h. The protocol:
as §4

Experiment [32] concerns BT-549. Described as above. To be noted: 10 nM; incubation time: 72 h. The protocol: as §4
The test system of experiment [33] is BT-474. Described as above. Conditions: 10 nM; incubation time: 72 h. The protocol: as §4
Experiment [34] concerns SK-BR-3. Described as above. To be noted: 10 nM; incubation time: 72 h. The protocol:
as §4

With `Cn1c(=O)n(-c2ccc(C(C)(C)C#N)cc2)c2c3cc(-c4cnc5ccccc5c4)ccc3ncc21` [Dactolisib], the “EC50, CellTiter-Glo” value in experiment [1] came out at 9.42 nM; in experiment [2], 13.6 nM; in [3], 12 nM; in experiment [4] it was 13 nM; in experiment [5], 11.8 nM; in [6] it was 3.68 nM. Besides, the “EC50, CellTiter-Glo” value stood at 9.82 nM in experiment [7]; 9.85 nM in [8]; 14.3 nM in [9]; 14 nM in experiment [10]; 8.05 nM in experiment [11]; 28.5 nM in experiment [12]. For the same compound, the “EC50, CellTiter-Glo” value in [13] came out at 23.1 nM.

Take `CO[C@H]1C[C@@H]2CC[C@@H](C)[C@@](O)(O2)C(=O)C(=O)N2CCCC[C@H]2C(=O)O[C@H]([C@H](C)C[C@@H]2CC[C@@H](OCCO)[C@H](OC)C2)CC(=O)[C@H](C)/C=C(\C)[C@@H](O)[C@@H](OC)C(=O)[C@H](C)C[C@H](C)/C=C/C=C/C=C/1C` [Everolimus]: the “EC50, CellTiter-Blue viability” value in [14] worked out at 0.4 nM. For the same compound, the “EC50, CellTiter-Glo” value in experiment [1] is 0.67 nM; in experiment [2] it was 0.18 nM; in experiment [3], 1.65 nM; in experiment [4] it was 0.24 nM; in experiment [6], 0.76 nM; in [7], 0.13 nM. Moreover, the “EC50, CellTiter-Glo” value was found to be 4.76 nM in [8]; 0.67 nM in [9]; 0.49 nM in experiment [10]; 0.22 nM in experiment [11]; 0.13 nM in experiment [13]. Further, the normalised viability in experiment [15] is 25.4% and 15.4%; in experiment [16], 38% and 16.3%; in [17] it was 76.8% and 59.4%; in [18], 37% and 28.9%; in experiment [19] it was 62% and 43%; in experiment [20], 61.8% and 39.1%. Besides, the normalised viability in experiment [21] was 30.5% and 29.2%; in [22] it was 42.9% and 41.6%; in experiment [23], 38.7% and 49%; in [24], 39.1% and 41.5%; in experiment [25], 61.6% and 56.1%; in experiment [26], 50.6% and 60.2%. For the same compound, the normalised viability in experiment [27] is 44.9% and 39.9%; in [28], 65.8% and 59.4%; in experiment [29], 80.8% and 75%; in experiment [30] it was 86% and 80.2%; in experiment [31], 81.1% and 87.6%; in [32], 66.5% and 53.2%. Also, the normalised viability in experiment [33] was 65.6% and 61.3%; in experiment [34], 48.1% and 51.2%.

The values above are taken from the supplement of paper PMC4862054.
